target: human CB1 receptor (Homo sapiens, UniProt P21554); experiment: Human CB1 receptor binding, [3H] CP-55,940 displacement on HEK cell membranes; parameters: expressed in transfected cells; host or cells: HEK cells, doxycycline-induced; membrane preparation; conditions: CB1 Ki
Experimental: The Human CB1 receptor binding affinity and other biological activities of the compounds of this invention are determined by the following procedures. Membrane preparation: Human Embryonic Kidney (HEK) Cells expressing the human CB1 receptor under transcriptional regulation of a tetracycline inducible promoter were grown in Dulbecco's Modified Essential Medium with sodium pyruvate (Invitrogen, Carlsbad, Calif.) containing 10% tetracycline free fetal bovine serum (Clonetech, Mountain View, Calif.) 100 μg/ml hygromycin (Calbiochem, San Diego, Calif.), 5 μg/ml blasticidin (Invitrogen). CB1 receptor expression was induced by addition of 1 μg/ml doxycycline (Calbiochem) and incubation for an additional 24 hours. Cells were released from flasks using Cell Dissociation Buffer (Invitrogen). Cells were pelleted by centrifugation at 500×G for 5 minutes. Membranes were prepared by resuspending cells in ice cold TEE Buffer (25 mM Tris pH 7.4, 5 mM EDTA, 5 mM EGTA, Complete Protease Inhibitor (Roche, Basel, Switzerland)). Cells were lysed with 12 strokes of a dounce homogenizer. Unlysed cells were pelleted by centrifugation at 500×G for 5 minutes. Membranes were pelleted by centrifugation at 25,000×G for 30 minutes. Membranes were resuspended in TEE, dounced 12 strokes, and pelleted a second time at 25,000×G for 30 minutes. Membrane pellet was resuspended in 50 mM Tris pH 7.4, 100 mM NaCl, 3 mM MgCl2, 0.2 mM EGTA, Complete Protease Inhibitor (Roche). Protein concentration was determined using the Micro-BCA Protein Assay Kit (Pierce, Rockford, Ill.) using BSA as a standard. Membranes were quick frozen and stored at −80 degrees Celsius until use.
Binding experiments: 50 μl of test compound was incubated with 50 μl of [^3H] CP-55,940 (Perkin Elmer, Boston, Mass.) (final concentration=[…]) and 150 μl of membrane homogenate (1 μg/well) in polypropylene 96-well plates (Corning, Acton, Mass.). Final reaction conditions were 50 mM Tris pH 7.4, 100 mM NaCl, 3 mM MgCl2, 0.2 mM EGTA, 0.04% BSA. Nonspecific binding was determined by incubation with 50 μM WIN-55, 212-2 (Tocris, Ellisville, Mo.). After incubation at room temperature for 60 minutes reactions were harvested by vacuum filtration through Unifilter GF/B-96 filters (Perkin Elmer) that had been presoaked in assay buffer containing 0.5% BSA (Sigma, St. Louis, Mo.) using a FilterMate Plate Harvester (Perkin Elmer). Filters were rinsed 4 times with 50 mM Tris pH 7.4, 0.025% Tween-20 and dried at 50 degrees Celsius for at least 30 minutes. 40 μl of Microscint-20 (Perkin Elmer) was added per well, and plates were counted using a Top-Count Microplate Scintillation Counter (Perkin Elmer). Binding data were analyzed and EC50 and K, values calculated using Graph Pad Prism 4.0 Software.

Chain of human CB1 receptor (P21554 whole entry): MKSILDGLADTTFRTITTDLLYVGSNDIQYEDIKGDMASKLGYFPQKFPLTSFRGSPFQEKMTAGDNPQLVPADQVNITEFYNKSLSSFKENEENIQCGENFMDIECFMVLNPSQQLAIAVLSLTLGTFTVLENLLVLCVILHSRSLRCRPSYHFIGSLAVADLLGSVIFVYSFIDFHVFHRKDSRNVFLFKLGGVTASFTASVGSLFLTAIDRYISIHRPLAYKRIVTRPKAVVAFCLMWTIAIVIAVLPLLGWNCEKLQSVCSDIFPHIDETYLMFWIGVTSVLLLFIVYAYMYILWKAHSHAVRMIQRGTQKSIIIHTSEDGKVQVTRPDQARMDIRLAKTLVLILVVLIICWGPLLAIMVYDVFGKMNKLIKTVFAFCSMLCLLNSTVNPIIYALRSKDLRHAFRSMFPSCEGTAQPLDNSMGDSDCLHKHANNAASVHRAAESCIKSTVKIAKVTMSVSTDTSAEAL

SMILES | Ki [nM]
CC(C)(C)[C@H](NC(=O)c1nn(Cc2ccc(C#N)cc2)c2cc(F)ccc12)C(=O)NCC1CCC(=O)N1 (some centres unmarked) [Example 403] | > 400
CC(C)(C)[C@H](NC(=O)c1nn(Cc2ccc(F)cc2)c2ccccc12)C(=O)N[C@H]1CCC[C@H]1O [Example 280] | 176
Cc1cc(Cn2nc(C(=O)N[C@H](C(N)=O)C(C)(C)C)c3ccccc32)no1 [Example 5, N-[(1S)-1-(aminocarbonyl)-2,2-dimethylpropyl]-1-[(5-methylisoxazol-3-yl)methyl]-1H-indazole-3-carboxamide] | 954
CC(C)(C)[C@H](NC(=O)c1nn(Cc2ccc(C#N)cc2)c2cc(F)ccc12)C(=O)NC[C@@H](O)CO [Example 297] | 124
CC(C)(C)[C@H](NC(=O)c1nn(Cc2ccc(F)cc2)c2ccc(Cl)cc12)C(=O)NCCS(C)(=O)=O [Example 433] | 35.5
CC(C)(C)[C@H](NC(=O)c1nn(Cc2ccc(F)cc2)c2ccc(Cl)cc12)C(=O)NC(CO)CO [Example 435] | 6.5
CC(C)(C)[C@H](NC(=O)c1nn(Cc2ccc(C#N)cc2)c2ccccc12)C(=O)N1CCS(=O)(=O)CC1 [Example 268] | > 400
CC(C)(C)[C@H](NC(=O)c1nn(Cc2ccc(C#N)cc2)c2ccccc12)C(=O)NC[C@H]1C[C@H]1CO [Example 489] | 127
CC(C)(C)[C@H](NC(=O)c1nn(Cc2ccc(C#N)cc2)c2ccc(Cl)cc12)C(=O)NCCS(C)(=O)=O [Example 442] | > 400
CC(C)(C)[C@H](NC(=O)c1nn(Cc2ccc(C#N)cc2)c2ccc(Cl)cc12)C(=O)NC(CO)CO [Example 448] | > 400
CC(C)(C)[C@H](NC(=O)c1nn(Cc2ccc(C(F)(F)F)cc2)c2ccccc12)C(=O)NC(CO)CO [Example 261] | 76.7
CC(C)(C)[C@H](NC(=O)c1nn(Cc2cccc3ccccc23)c2ccccc12)C(=O)NCCO [Example 274] | > 400
CC(C)(C)[C@H](NC(=O)c1nn(Cc2ccc(F)cc2)c2ccccc12)C(=O)N[C@H]1CCCC[C@@H]1O [Example 252] | 205
CC(C)NC(=O)[C@@H](NC(=O)c1nn(Cc2ccc(F)cc2)c2ccc(Cl)cc12)C(C)(C)C [Example 437] | 2.79
COc1cc(C#N)ccc1Cn1nc(C(=O)N[C@H](C(=O)NC[C@@H](O)CO)C(C)(C)C)c2ccccc21 [Example 389] | > 400
CC(C)NC(=O)[C@@H](NC(=O)c1nn(Cc2ccc(C#N)cc2)c2ccccc12)C(C)(C)C [Example 405] | 48.1
CC(C)(C)[C@H](NC(=O)c1nn(Cc2ccc(C#N)cc2)c2cc(F)ccc12)C(=O)N[C@H]1CNC(=O)C1 [Example 454] | > 400

same assay, conditions: read-out: CB1 Ki

SMILES | Ki [nM]
CC(C)(C)[C@H](NC(=O)c1nn(Cc2ccc(F)cc2)c2ccccc12)C(=O)NCC(=O)NCCCO [Example 521] | > 400
COc1cc(CNC(=O)[C@@H](NC(=O)c2nn(Cc3ccc(C#N)cc3)c3ccccc23)C(C)(C)C)on1 [Example 311] | 147
CC(C)(C)[C@H](NC(=O)c1nn(Cc2ccc(F)cc2)c2ccccc12)C(=O)N1CCC[C@H]1C(=O)NCCO [Example 293] | > 400
CC(C)(C)[C@H](NC(=O)c1nn(Cc2ccc(F)cc2)c2ccccc12)C(=O)NCC(=O)NC(CO)CO [Example 377] | 22.5
CC(C)(C)[C@H](NC(=O)c1nn(Cc2ccc(F)cc2)c2ccccc12)C(=O)NCC(=O)NC[C@H](O)CO [Example 522] | > 400
CC(C)(C)[C@H](NC(=O)c1nn(Cc2ccc(C#N)cc2)c2c(F)cccc12)C(=O)NCc1nnc(C(=O)NCCO)o1 [Example 464] | 58
CC(C)(C)[C@H](NC(=O)c1nn(Cc2ccc(F)cc2)c2ccccc12)C(=O)N[C@@H](CC(N)=O)C(N)=O [Example 239] | 46.8
CC(C)(C)C(NC(=O)c1nn(Cc2ccccc2C(N)=O)c2ccccc12)C(N)=O (centres unmarked) [Example 34] | 154
CCN(CC)C[C@@H](O)CNC(=O)[C@@H](NC(=O)c1nn(Cc2ccc(F)cc2)c2ccccc12)C(C)(C)C [Example 505] | 301

Reference: US20110028447A1, “INDAZOLE DERIVATIVES” (Pfizer Inc., priority 2008, published 2011)
